Experimental data as given in patent US20250304537A1 (Repare Therapeutics Inc., priority 2022, published 2025).
Like-named read-outs stand apart in the source and are kept apart here.

Assays:
[1] = target: recombinant human Myt1 (full length PKMYT1) (Homo sapiens (Human), UniProt Q99640); assay: Recombinant human Myt1 kinase assay (ADP-Glo); assay type: biochemical; conditions: 10 μM ATP
Method in brief: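 Full-length insect-cell-expressed human Myt1 (18 nM final) was preincubated with compound (0.5% DMSO) for 15 min at 22 °C. The reaction ran with 10 μM ATP for 60 min at 30 °C in HEPES buffer with Mg2+/Mn2+ and DTT. ADP formed was read by ADP-Glo luminescence, giving IC50 and % max inhibition.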

[2] = test system: PKMYT1 (CDK1 pThr14) in FUOV1 cells; assay: PKMYT1 cell-based activity assay, CDK1 pThr14 AlphaLISA in FUOV1 cells; conditions: read-out: FUOV-1 CDK1 pThr14 IC50
Method in brief: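 FUOV1 cells were treated with PKMYT1 inhibitor for 2 h at 37 °C, then lysed. CDK1 pThr14 was measured by AlphaLISA, pairing an anti-pThr14 antibody with an anti-total CDK1 antibody (5 nM each). Signal read at 680/615 nm and used to derive IC50.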

Chain of recombinant human Myt1 (full length PKMYT1) (Q99640 whole entry): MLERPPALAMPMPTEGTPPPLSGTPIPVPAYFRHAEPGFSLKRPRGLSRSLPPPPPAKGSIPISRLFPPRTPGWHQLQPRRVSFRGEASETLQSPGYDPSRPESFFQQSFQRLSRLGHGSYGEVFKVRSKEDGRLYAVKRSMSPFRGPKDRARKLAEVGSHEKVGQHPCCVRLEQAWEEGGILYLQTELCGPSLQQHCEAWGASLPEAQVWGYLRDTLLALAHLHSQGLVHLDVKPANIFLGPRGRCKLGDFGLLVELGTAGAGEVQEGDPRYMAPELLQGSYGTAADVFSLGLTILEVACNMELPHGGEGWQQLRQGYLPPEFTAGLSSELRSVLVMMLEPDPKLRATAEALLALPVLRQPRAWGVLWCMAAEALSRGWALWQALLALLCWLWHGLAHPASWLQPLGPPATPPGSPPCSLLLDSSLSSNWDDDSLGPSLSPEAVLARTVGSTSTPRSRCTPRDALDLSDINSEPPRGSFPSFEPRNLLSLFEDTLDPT

Row | IC50 [1] | IC50 ([2]; 2 h, 2 hours with compound) | IC50 ([2]; 2 h, 2 h incubation) | IC50 ([2]; 2 h, 2 h compound incubation) | IC50 ([2]; 2 h incubation) | SMILES
1 | 2 nM | 221 nM |  |  |  | Cc1ccc2[nH]ncc2c1-c1nc(-c2cccnc2N[C@H](c2cccnc2)C(F)F)nc(C(N)=O)c1N [Compound 936]
2 | 10 nM |  | 335 nM |  |  | CNCCOc1nccc(-c2cc(-c3c(C)ccc4[nH]ncc34)c(N)c(C(N)=O)n2)n1 [Compound 210]
3 | 7 nM |  | 155 nM |  |  | COC(C)COc1nccc(-c2cc(-c3c(C)ccc4[nH]ncc34)c(N)c(C(N)=O)n2)n1 (centres unmarked) [Compound 303]
4 | 4 nM | 22 nM |  |  |  | Cc1ccc2[nH]ncc2c1-c1nc(-c2cc(Cl)ncc2NC2CCOCC2)nc(C(N)=O)c1N [Compound 839]
5 | 4 nM |  | 59 nM |  |  | COc1ccc(-c2cc(-c3c(C)ccc(O)c3C)c(N)c(C(N)=O)n2)nc1 [Compound 59]
6 | 20 nM |  | 2520 nM |  |  | Cc1ccc(O)c(C)c1-c1cc(-c2ccc(C(F)(F)F)cc2)nc(C(N)=O)c1N [Compound 15]
7 | 10 nM |  | 539 nM |  |  | COCCOc1cccc(-c2cc(-c3c(C)ccc4[nH]ncc34)c(N)c(C(N)=O)n2)n1 [Compound 245]
8 | 4 nM |  |  | 223 nM |  | Cc1ccc2[nH]ncc2c1-c1nc(-c2ccccc2NCC(F)F)cc(C(N)=O)c1N [Compound 412]
9 | 9 nM |  | 144 nM |  |  | COCC(COC)Oc1nccc(-c2cc(-c3c(C)ccc4[nH]ncc34)c(N)c(C(N)=O)n2)n1 [Compound 207]
10 | 21 nM |  | 1220 nM |  |  | Cc1ccc2[nH]ncc2c1-c1cc(-c2ccnc(N)c2)nc(C(N)=O)c1N [Compound 189]
11 | 6 nM |  | 108 nM |  |  | Cc1ccc2[nH]ncc2c1-c1nc(-c2cccc3cn[nH]c23)nc(C(N)=O)c1N [Compound 323]
12 | 7 nM |  | 266 nM |  |  | Cc1ccc(O)c(C)c1-c1cc(-c2ncc(F)cc2F)nc(C(N)=O)c1N [Compound 39]
13 | 6 nM |  |  | 77 nM |  | Cc1ccc2[nH]ncc2c1-c1nc(-c2cc(F)c(F)cc2NC2CCOCC2)nc(C(N)=O)c1N [Compound 466, 5-amino-2-(4,5-difluoro-2-((tetrahydro-2H-pyran-4-yl)amino)phenyl)-6-(5-methyl-1H-indazol-4-yl)pyrimidine-4-carboxamide]
14 | 6 nM |  | 205 nM |  |  | COC[C@@H](C)Oc1nccc(-c2cc(-c3c(C)ccc4[nH]ncc34)c(N)c(C(N)=O)n2)n1 [Compound 204]
15 | 10 nM |  |  | 825 nM |  | Cc1ccc2[nH]ncc2c1-c1nc(-c2ccccc2NC(=O)c2cccc(F)c2)nc(C(N)=O)c1N [Compound 460]
16 | 24 nM |  | 1010 nM |  |  | Cc1ccc(O)cc1-c1nc(-c2ccc(N3CCN(CCO)CC3)cc2)nc(C(N)=O)c1N [Compound 6]
17 | 29 nM |  | 1470 nM |  |  | NC(=O)c1nc(-c2ccccn2)cc(-c2cccc3[nH]ncc23)c1N [Compound 70]
18 | 3 nM |  |  | 5 nM |  | Cc1ccc2[nH]ncc2c1-c1nc(-c2cc(F)ccc2NC(=O)C2(C)CC2)nc(C(N)=O)c1N [Compound 447]
19 | 6 nM |  | 51 nM |  |  | Cc1ccc2[nH]ncc2c1-c1cc(-c2cccc(OCc3ncccn3)n2)nc(C(N)=O)c1N [Compound 184]
20 | 22 nM |  | 1070 nM |  |  | Cc1ccc2[nH]ncc2c1-c1nc(-c2ccccc2)nc(C(N)=O)c1N [Compound 65]
21 | 12 nM |  |  | 214 nM |  | Cc1ccc2[nH]ncc2c1-c1nc(-c2ccc(F)cc2Nc2cc(C#N)ccn2)nc(C(N)=O)c1N [Compound 612]
22 | 4 nM |  |  | 137 nM |  | Cc1ccc2[nH]ncc2c1-c1nc(-c2ccccc2NC(=O)C2(C)CC(F)(F)C2)nc(C(N)=O)c1N [Compound 462]

Row | IC50 [1] | IC50 ([2]; 2 h, 2 hours with compound) | IC50 ([2]; 2 h, 2 h incubation) | IC50 ([2]; 2 h, 2 h compound incubation) | IC50 ([2]; 2 h incubation) | SMILES
23 | 4 nM | 195 nM |  |  |  | Cc1cc(F)c2[nH]ncc2c1-c1nc(-c2cn(C)nc2NC2CCOCC2)nc(C(N)=O)c1N [Compound 903, 5-amino-6-(7-fluoro-5-methyl-1H-indazol-4-yl)-2-(1-methyl-3-((tetrahydro-2H-pyran-4-yl)amino)-1H-pyrazol-4-yl)pyrimidine-4-carboxamide]
24 | 4 nM |  |  | 38 nM |  | Cc1ccc2[nH]ncc2c1-c1nc(-c2ccccc2NS(=O)(=O)C2CC2)nc(C(N)=O)c1N [Compound 426]
25 | 7 nM |  | 39 nM |  |  | Cc1ccc2[nH]ncc2c1-c1cc(-c2ccnc(OCc3ncccn3)n2)nc(C(N)=O)c1N [Compound 235]
26 | 5 nM |  |  |  | 387 nM | Cc1ccc(O)c(C)c1-c1cc(-c2nc3ccccc3s2)nc(C(N)=O)c1N [Compound 58]
27 | 8 nM |  | 996 nM |  |  | Cc1ccc2[nH]ncc2c1-c1cc(-c2ccnc(OCCc3ncc[nH]3)n2)nc(C(N)=O)c1N [Compound 240]
28 | 4 nM |  | 367 nM |  |  | Cc1ccc2[nH]ncc2c1-c1cc(-c2cccc(O[C@H]3CCOC3)n2)nc(C(N)=O)c1N (atropisomer, axis not shown) [Compound 226]
29 | 3 nM |  | 21 nM |  |  | Cc1ccc2[nH]ncc2c1-c1nc(-c2ccccc2NC(=O)C(C)(C)C)nc(C(N)=O)c1N [Compound 377]
30 | 23 nM |  | 1100 nM |  |  | Cc1ccc2[nH]ncc2c1-c1cc(-c2ccnc(OC3CCCC3)n2)nc(C(N)=O)c1N [Compound 170]
31 | 10 nM |  | 77 nM |  |  | Cc1ccc(O)c(C)c1-c1cc(-c2cccc(=O)[nH]2)nc(C(N)=O)c1N [Compound 72]
32 | 17 nM | 447 nM |  |  |  | Cc1ccc2[nH]ncc2c1-c1nc(-c2cccnc2Nc2cscn2)nc(C(N)=O)c1N [Compound 894]
33 | 6 nM |  | 106 nM |  |  | Cc1ccc2[nH]ncc2c1-c1cc(-c2ccnc(O[C@H]3CO[C@H]4OCC[C@H]43)n2)nc(C(N)=O)c1N [Compound 208]
34 | 2 nM |  |  | 36 nM |  | Cc1ccc2[nH]ncc2c1-c1nc(-c2ccccc2NCC(F)F)nc(C(N)=O)c1N [Compound 400, 5-amino-2-(2-((2,2-difluoroethyl)amino)phenyl)-6-(5-methyl-1H-indazol-4-yl)pyrimidine-4-carboxamide]
35 | 5 nM |  |  | 19 nM |  | Cc1nccc(Nc2cc(F)ccc2-c2nc(C(N)=O)c(N)c(-c3c(C)ccc4[nH]ncc34)n2)n1 [Compound 525]
36 | 2 nM |  |  | 67 nM |  | Cc1ccc2[nH]ncc2c1-c1nc(-c2cccnc2NC2CCOCC2C)nc(C(N)=O)c1N (centres unmarked) [Compound 606]
37 | 5 nM |  |  | 530 nM |  | Cc1cccc(Nc2ncccc2-c2nc(C(N)=O)c(N)c(-c3c(C)ccc4[nH]ncc34)n2)n1 [Compound 626]
38 | 13 nM |  | 281 nM |  |  | Cc1ccc2[nH]ncc2c1-c1cc(-c2cccc(OCCN3CCNCC3)n2)nc(C(N)=O)c1N [Compound 183]
39 | 5 nM |  |  | 184 nM |  | Cc1ccc2[nH]ncc2c1-c1nc(-c2ccccc2NCC(F)(F)F)cc(C(N)=O)c1N [Compound 413]
40 | 3 nM |  |  | 467 nM |  | Cc1ccc2[nH]ncc2c1-c1nc(-c2cccnc2NC[C@H]2CCCO2)nc(C(N)=O)c1N [Compound 601]
41 | 176 nM | > 10000 nM |  |  |  | Cc1ccc2[nH]ncc2c1-c1nc(-c2cccnc2Nc2ccnn2C2CC2)nc(C(N)=O)c1N [Compound 885]
42 | 4 nM |  |  | 33 nM |  | CCNc1ccccc1-c1nc(C(N)=O)c(N)c(-c2c(C)ccc3[nH]ncc23)n1 [Compound 442]
43 | 4 nM |  | 903 nM |  |  | Cc1ccc2[nH]ncc2c1-c1cc(-c2ccnc(OCCc3ccccn3)n2)nc(C(N)=O)c1N [Compound 239]
